In US7655600B2, “1-(azolin-2-yl)amino-1,2-diphenylethane compounds for combating insects, arachnids and nematodes” (BASF Aktiengesellschaft, priority 2003, dated 2010):

Tested on: Spodoptera eridania
Assay: Southern armyworm (Spodoptera eridania), 2nd instar larvae, on dipped Sieva lima bean foliage
Format: in vivo
Conditions: 300 ppm, observation at 5 days
Description: The active compounds were formulated • a. for testing the activity against Aphis gossypii, Myzus persicae, and Aphis fabae, as 50:50 acetone:water solutions amended with 100 ppm Kinetic® (surfactant), • b. for testing the activity against Spodoptera eridania as a 10.000 ppm solution in a mixture of 35% acetone and water, which was diluted with water, if needed,
After the experiments were completed, in each case the lowest concentration was determined at which the compound still caused an 75 to 100% inhibition or mortality in comparison with untreated controls (limit or minimal concentration).
Foliage of two Sieva lima beans plants at the first expanded true-leaf stage that are contained within a single 3.8 cm square plastic pot are dipped into the test solution with agitation for 3 seconds and allowed to dry in a hood. The pot is then placed in a 25.4 cm plastic zipper top bag and infested with ten 2nd instar caterpillars. At 5 days, observations are made of mortality, reduced feeding, or any interference with normal molting.

Cc1cccc(CC(NC2=NCC(C)S2)c2ccccc2)c1 (stereo not shown) [Example 16]
mortality in comparison with untreated controls: over 50%
